Measured values reported in PubChem BioAssay (NCI).
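A five-concentration, 48-hour dose response in 96-well plates underlies each endpoint, interpolated linearly between surrounding concentrations. The concentration for full growth arrest is given as TGI.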 Where a SMILES comes first, the peptide text is derived from it. The star is where a group is joined. Boc = CC(C)(C)OC(=O)*; OBn = c1ccc(CO*)cc1

Legend:
Test in all cases: growth of human tumour cells (NCI), 48 h
SF-295 CNS = test system: SF-295 CNS
T-47D breast = test system: T-47D breast
SR leukemia = test system: SR leukemia
HCT-15 colon = test system: HCT-15 colon
MALME-3M melanoma = test system: MALME-3M melanoma
SK-MEL-28 melanoma = test system: SK-MEL-28 melanoma
HT29 colon = test system: HT29 colon
M14 melanoma = test system: M14 melanoma
SF-268 CNS = test system: SF-268 CNS
SK-MEL-5 melanoma = test system: SK-MEL-5 melanoma
U251 CNS = test system: U251 CNS
PC-3 prostate = test system: PC-3 prostate
NCI-H226 lung = test system: NCI-H226 lung
COLO 205 colon = test system: COLO 205 colon
DU-145 prostate = test system: DU-145 prostate
MDA-N = test system: MDA-N
NCI/ADR-RES ovarian = test system: NCI/ADR-RES ovarian
HL-60(TB) leukemia = test system: HL-60(TB) leukemia
K-562 leukemia = test system: K-562 leukemia

SMILES	TGI (SF-295 CNS) [µM]	TGI (T-47D breast) [µM]	TGI (SR leukemia) [µM]	TGI (HCT-15 colon) [µM]	TGI (MALME-3M melanoma) [µM]	TGI (SK-MEL-28 melanoma) [µM]	TGI (HT29 colon) [µM]	TGI (M14 melanoma) [µM]	TGI (SF-268 CNS) [µM]	TGI (SK-MEL-5 melanoma) [µM]	TGI (U251 CNS) [µM]	TGI (PC-3 prostate) [µM]	TGI (NCI-H226 lung) [µM]	TGI (COLO 205 colon) [µM]	TGI (DU-145 prostate) [µM]	TGI (MDA-N) [µM]	TGI (NCI/ADR-RES ovarian) [µM]	TGI (HL-60(TB) leukemia) [µM]	TGI (K-562 leukemia) [µM]
O=C1CCCCC/C1=C\c1ccc(Cl)cc1	56.6	> 100	> 100	> 100	> 100	> 100	54.5	> 100	55.5	35.2	> 100	48.4	> 100	40.8	> 100	> 100			
Cc1ccc(S(=O)(=O)NNC2(NS(=O)(=O)c3ccc(Cl)cc3)C(Cl)=C(Cl)C(=O)c3ccccc32)cc1 (stereo not drawn)	51.4	> 100		83.8	33.2	60.7	35.1	33	29.6	28.7	57.3	33.5		34.9	33.2	32.2	89.8	37.4	36.1
O=C(Cc1ccccc1)NNc1nc(NNC(=O)c2ccncc2)nc(Nc2cccc(Cl)c2)n1		> 10	> 10	> 10	> 10	> 10	> 10	> 10	> 10	> 10	> 10			> 10	> 10	> 10	> 10	> 10	> 10
O=C1C(=Nc2ccccc2)Oc2cc(O)ccc21	> 100	> 100	> 100	> 100	> 100	> 100	> 100	> 100	> 100	> 100	> 100	> 100	> 100	> 100	> 100	> 100	> 100		> 100
c1ccc2cc(CNCCOCCOCCNCc3ccc4ccccc4c3)ccc2c1	3.11	4.95	5.45	3.46	3.9	4.35	2.76	3.89	4.43	5.66	4.07	5.3	9.9	3.01	3.37	3.23		4.07	2.79
O=C(CCCN1CCC2(CC1)CC(=O)N(N1CCCCCC1)C2=O)c1ccc(F)cc1	63.2	> 100	> 100	> 100	> 100	> 100	33.8	> 100	> 100	> 100	> 100	> 100		> 100	> 100	> 100	37.3	> 100	> 100
O=C(NCCc1ccccc1)c1c(O)c2ccccc2[nH]c1=O	> 100		> 100	> 100	> 100	> 100	> 100		> 100	> 100	> 100	> 100	> 100	> 100	> 100	> 100	> 100	> 100	> 100
O=C(Cc1ccccc1)NCCCN(CCCCN(CCCNC(=O)Cc1ccccc1)C(=O)OCc1ccccc1)C(=O)OCc1ccccc1	> 100	> 100	> 100	> 100		> 100	> 100	> 100	> 100	> 100	> 100	> 100	> 100	> 100	> 100	> 100	> 100		> 100
CC1=N[C@](C)(C2CC3C=CC2C3=O)COC1=O (stereo partly drawn)	> 100	> 100	> 100		> 100	> 100	> 100	> 100	> 100	> 100	> 100	> 100	> 100	> 100	> 100	> 100		> 100	> 100
CC(=O)N(CN1C(=O)CCC1C(=O)O)c1cccc(O)c1 (stereo not drawn)	> 100	> 100		> 100	> 100	> 100	> 100	> 100	> 100	> 100	> 100	> 100	> 100	> 100	> 100	> 100	> 100	> 100	> 100
CCN(CC)C(=S)N=Nc1c(O)[nH]c2ccccc12	11.5		4.91	19.6	10.4	> 100	14.8	2.94	> 100	2.41	13	13.9	8.2	11.6	> 100	16.5	0.759	3.7	5.31
CC(NC(=O)C(Cc1ccccc1)NC(=O)C(Cc1ccccc1)NC(=O)OC(C)(C)C)C(=O)OCc1ccccc1 (stereo not drawn) (Boc-Phe-Phe-Ala-OBn; configuration not given here)	> 100	> 100	> 100		> 100		> 100	> 100	> 100	> 100	> 100	> 100	84	> 100	> 100	> 100	> 100	> 100	> 100
CN(C)CCn1c(=O)c2ccc3c4c(nn3CCN(C)C)c3cc(O)ccc3n(c1=O)c24	0.271	> 39.2	0.0505	3.36	0.982	1.58	0.262	0.846	0.591	0.787		2.98	1.44	0.609		0.603	6.82	1.96	1.56
O=C1/C(=C/c2c(Cl)[nH]c3ccccc23)c2ccccc2N1c1ccccc1	8.54	16	19.6	15	18.6	23.8	18.9	13	33.2		22.9	19.4		5.34	32.9	3.8	6.55	13.9	> 100
CC12c3c4cc(Br)cc3Oc3cc(Br)cc(c31)Oc1cc(Br)cc(c12)O4	> 100	> 100	> 100	> 100	37.5	> 100	> 100	> 100	28.2	84.5	> 100	55.3	41.3	> 100	49.1	> 100	58.5		> 100
O=C1NC(=O)C(COCc2ccccc2)C2=C1SCCC2 (stereo not drawn)	> 100		> 100	> 100	> 100	> 100	> 100	> 100	> 100	> 100	> 100	> 100	> 100	> 100	> 100	> 100	> 100	> 100	> 100
COC(=O)C1(Cc2ccc3c(c2)CCC3)Cc2ccc3c(c2C1)CCC3 (stereo not drawn)	60.7	27.1		> 100	42	> 100	33.9		> 100	40.2	37.1	55.9	66	39.2	> 100	41	72.8	> 100	> 100
O=C1Nc2ccccc2/C1=C/c1c(Cl)[nH]c2ccc(O)cc12	> 25.5	28.3	12	17.5	15.7	22.5	12.1	11	> 43.7	9.54	14.5	16.3	5.12	6.4	6.69	1.6		5.31	17.1
O=c1c2cn[nH]c2nc2scc(-c3ccc(Cl)cc3)n12	> 100	> 100	> 100	> 100	> 100	> 100	> 100	> 100	> 100	> 100	> 100	> 100	> 100	> 100		> 100	> 100		> 100
NC(CCC(=O)O)(CCC(=O)O)CCC(=O)O	> 100	> 100	> 100	> 100	> 100		> 100	> 100	> 100	> 100	> 100	> 100	> 100	> 100	> 100	> 100	> 100		> 100
CCOc1ncn(-c2ccc(NC(=S)NC34CC5CC(CC(C5)C3)C4)cc2)n1	> 100	> 100	> 100	> 100		> 100	> 100	> 100	> 100	> 100		> 100		> 100	> 100	> 100		> 100	> 100
COC(=O)C1=C(C)NC(C)=C(C(=O)OC)C1c1cccc(NO)c1	83.1	55.4	> 100	41.4	29.9	28.3	32.4	33.2	30.6	29.4	29.8	30.4	40.7	30.3	> 100	28.5	42.3		> 100
CCOC(=O)Nc1nn(C)c(=NCc2ccccc2)s1	> 100	> 100	> 100	> 100		> 100				> 100	> 100	> 100		> 100	> 100	> 100		> 100	> 100
COc1ccc(C2(O)c3ccccc3C(=O)N(C)C2(O)c2ccc(OC)cc2)cc1 (stereo not drawn)	> 100	> 100	> 100	> 100	> 100	> 100	> 100	> 100	> 100	> 100	> 100	> 100		60.1	> 100	38.1	> 100	> 100	> 100
COC(C)(C)CCc1[nH]c2ccccc2c1CC(=O)NCCc1cncn1C		> 100	> 100	> 100	> 100	> 100	> 100	> 100	> 100	> 100	> 100	> 100	> 100	> 100	> 100	> 100	> 100	> 100	> 100
CN(CCCN(C)CCc1ccc(Cl)c(Cl)c1)CCCN1CCCC1	4.76	5.94		7.22	3.83	3.18	2.58	3.66	7.02		4.62	15.1	5.68	6.84	21.4	2.65	19.8	4.12	1.3
O=c1oc2c(ccc3ccccc32)cc1C1=CSC2=NCCN12	> 100	> 100	> 100	> 100	> 100	> 100	> 100	> 100	> 100	> 100	> 100	> 100		> 100	75.1	> 100	> 100	> 100	> 100
